Assay results from patent US12324843B2, “Compositions and methods for delivery of biomacromolecule agents” (The Regents of the University of Michigan, priority 2015, dated 2025).
Residues, ends and D or L forms follow the SMILES beside them. *: point of attachment. FITC = O=C1OC2(c3ccc(O)cc3Oc3cc(O)ccc32)c2ccc(NC(=S)*)cc21

Assay: Lymph node draining study (IVIS)
Assay type: in vivo, C57BL/6 mice
Conditions: 31 nmol s.c. at tail base, after 1 day
Protocol: sHDL-[…](FITC)L was prepared as described above. Female C57BL/6 mice of age 6-8 weeks were purchased from Harlan Laboratories. C57BL/6 mice were subcutaneously injected with free […](FITC)L or sHDL-[…](FITC)L. 24 hours after injection, mice were euthanized by carbon dioxide inhalation and axillary lymph nodes and inguinal lymph nodes were harvested and imaged with IVIS optical imaging system (Caliper Lifesciences).
For lymph node draining studies, C57BL/6 mice were injected with free CSSSIINFBK(FITC)L, sHDL-CSSSIINFBK(FITC)L, free Cho-CpG(Cy5), or sHDL-Cho-CpG(Cy5). After 24 h, inguinal lymph nodes were harvested, and FITC or Cy5 fluorescence signal was measured with IVIS optical imaging system (Caliper Life Sciences).

FITC signal in inguinal dLNs: minimal FITC signal in inguinal dLNs
SMILES: CC[C@H](C)[C@H](NC(=O)[C@H](CO)NC(=O)[C@H](CO)NC(=O)[C@H](CO)NC(=O)[C@@H](N)CS)C(=O)N[C@H](C(=O)N[C@@H](CC(N)=O)C(=O)N[C@@H](Cc1ccccc1)C(=O)N[C@@H](CCC(=O)O)C(=O)N[C@@H](CCCCNC(=S)Nc1ccc2c(c1)C(=O)OC21c2ccc(O)cc2Oc2cc(O)ccc21)C(=O)N[C@@H](CC(C)C)C(=O)O)[C@@H](C)CC [free CSS-SIINFEK(FITC)L] (H-CSSSIINFEK(FITC)L-OH)
